This data set can be described thus: Ionization state of the molecule at physiological pH was evaluated by potentiometry. It counts as ADME.

Each structure is given as a SMILES string.

In turn, `Nc1ncnc2c1nc(N)n2[C@@H]1O[C@H](CO)[C@@H](O)[C@H]1O` yielded a pKa of 4. For `COc1ccc2nc3cc(Cl)ccc3c(N)c2c1`, the pKa was 8.99.
